Results reported in patent US20220072036A1, “METHOD FOR INHIBITING CORONAVIRUS AND METHOD FOR TREATING DISEASE ASSOCIATED WITH CORONAVIRUS INFECTION” (AMAZING FORTUNE CO., LTD., priority 2020, published 2022).

Tests used:
[1] = target: SARS-CoV-2 papain-like protease (PLPro) (Severe acute respiratory syndrome coronavirus 2, UniProt P0DTD1); type: biochemical; conditions: SARS-CoV2 PLPro 0.9 μM, 30 min preincubation, FG6-pNA substrate, 30° C., 300 seconds; inhibitor concentrations per Table 1; mean±standard deviation
[2] = tested on: CC(C)C[C@H](NC(=O)[C@H](CCCNC(=N)N)NC(=O)[C@@H](N)Cc1ccccc1)C(=O)N[C@@H](CCCCN)C(=O)NCC(=O)NCC(=O)Nc1ccc([N+](=O)[O-])cc1; assay: purified protein, by the assay type; conditions: pH 7.4; 30.0 °C

Compound	Inhibition percentage [1]	Km [2]	kcat [2]
[Mg+2] [Comparative Group 2]	13.99 ± 0.11%		
[Zn+2] [Comparative Group 3]	19.83 ± 0.88%		
SARS-CoV-2 PLpro (Severe acute respiratory syndrome coronavirus 2)		2500 ± 30 µM	0.85 ± 0.01 s⁻¹
